From paper PMC7238388, “Biological Evaluation of Newly Synthesized Biaryl Guanidine Derivatives to Arrest β-Secretase Enzymatic Activity Involved in Alzheimer's Disease” (BioMed Research International, 2020)
Like-named read-outs stand apart in the source and are kept apart here.

Key:
BACE1 enzyme = target: T1, BACE1 enzyme (Homo sapiens, UniProt P56817); experiment: BACE1 FRET-based inhibitory activity assay (Sigma-Aldrich kit CS0010); assay type: biochemical
T1 construct: purchased Sigma-Aldrich CS0010
T1 sequence (P56817 46-501): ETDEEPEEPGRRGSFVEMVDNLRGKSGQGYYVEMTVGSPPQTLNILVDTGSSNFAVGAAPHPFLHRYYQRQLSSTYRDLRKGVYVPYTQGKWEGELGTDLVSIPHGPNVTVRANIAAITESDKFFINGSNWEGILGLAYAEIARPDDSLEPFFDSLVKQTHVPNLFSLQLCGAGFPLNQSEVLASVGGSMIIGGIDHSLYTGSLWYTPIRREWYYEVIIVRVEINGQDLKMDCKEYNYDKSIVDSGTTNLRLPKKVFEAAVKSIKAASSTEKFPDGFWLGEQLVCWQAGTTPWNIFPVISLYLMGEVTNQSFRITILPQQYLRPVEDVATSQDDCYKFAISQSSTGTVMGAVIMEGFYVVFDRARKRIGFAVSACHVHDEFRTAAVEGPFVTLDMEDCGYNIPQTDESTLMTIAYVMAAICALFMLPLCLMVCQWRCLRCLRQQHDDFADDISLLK
Experimental: BACE1 inhibitory activity was carried out by adopting the procedures described by the Sigma-Aldrich FRET-based assay activity kit (product # CS0010).
Briefly, the assay was carried out in a fixed volume of 100 μl with the BACE1 substrate (20 μl, 50 μM), assay buffer (78 μl/78-X μl, pH 4.5), test sample(s) (X μl, 100 μM), and BACE1 enzyme (2 μl, ~0.3 unit/μl) incubated at 37°C for 75 min in 96-well microplate reaction mixture. The baseline fluorescence (null time) signal was noticed (at 320 nm) immediately after the addition of BACE1 enzymes while emission signals were monitored at 405 nm at 25°C. Both the enzyme and the substrate were prepared in the buffer while tested samples dissolved primarily in DMSO (5%) subsequently in serially diluted buffer solution in a desired volume of 2 μl, 3 μl, and 5 μl having 200 pmol, 300 pmol, and 500 pmol concentration, respectively. A standard curve was prepared between fluorescent unit (FU) and standard solution (100 μM, 100-500 pmol, and 1-5 μl) to find out 50% BACE1 cleaving activity. The sample blank (buffer with substrate) was treated as the negative control while the positive control was the solution of the buffer with substrate and enzyme mixture (http://www.sigmaaldrich.com). Finally, IC50 of the intended compounds were calculated via GraphPad Prism v8 software.

[1] = test system: AlCl3-induced mouse models; experiment: Novel object recognition memory test in AlCl3-induced AD model mice; assay type: in vivo, BALB/c mice; conditions: AD model treated with compound; control 64.44 ± 2.50 s, AD model 31.80 ± 2.00 s; p < 0.05
Experimental: (§1) Male BALB/c mice (3.5 to 5.5 months of age) were purchased from National Institute of Health (NIH) Islamabad, Pakistan. All experiments were performed by following the rules and regulations in accordance with the Helsinki Declaration after getting permission from the Departmental Review Committee (Ref. # PHM.Eth/CS-M01/18-001 dated 05/2018). Animals were kept in standard cages and provided food, water, and cleanliness in accordance with the documented protocols. Moreover, they were categorized into nine groups (n = 10) for experimental purposes.
(§2) The control group of mice was treated with drinking water having aluminum chloride (17 mg/kg) and tape water for a period of five weeks. Synthesized ligands (20-55 mg/kg) were administered to neutralize the AlCl3 effects and to design treated mouse groups. All the behavioral tests were performed on days 28 to 34 (08:30 am to 4:30 pm at 25 ± 2°C). Animals were shifted 20 minutes prior to the experimentation room to get accustomed with the test environment. Trials were recorded via videocam, and results were obtained to reveal the final conclusions.
The novel object recognition memory test is an additional procedure to describe and evaluate the memory of the rodents. The entire methodology was performed in a specific designed box of dimensions about 25 cm × 25 cm × 25 cm at daytime (25 ± 2°C). […]

[2] = test system: AlCl3-induced neurotoxic mice; experiment: Morris water maze test in AlCl3-induced neurotoxicity mice; assay type: in vivo, BALB/c mice
Experimental: as §1, §2
To evaluate 3D spatial recalling memory of the animals under observations, an authentic and sensitive assay “Morris water maze test” was carried out.
The apparatus used for this test has a round pool with a 120 cm diameter and a 60 cm of depth. The pool is divided into 4 hypothetical quadrants North, West, South, and East. The experiment began on day 28, and 5 trials were executed each day. The mouse was given 1 min to find out the hidden platform with a 10 min interval between the two successive trials. The usual time essential for a mouse to reach at the platform was recorded, and an average of 5 trials was presumed as the escape latency of the animal for that day. On the 32nd day of intervention, a probe test was executed when there was no platform, with a different release position. The spatial memory of the mouse was estimated by computing the time spent by the mouse in the quadrant in which the platform was formerly located. […]

[3] = BACE1 FRET assay, pH 4.5, 37°C, 75 min, read-out: IC50

SMILES	melting point	IC50 (BACE1 enzyme; [3])	other results
N=C(Nc1ccccc1F)Nc1ccccc1F [Compound 1, 1,3-bis(2-fluorophenyl)guanidine]	130 to 132 °C	85 µM	
N=C(Nc1ccc(Br)c2ccccc12)Nc1ccc(Br)c2ccccc12 [Compound 2, 1,3-bis(4-bromonaphthalen-1-yl)guanidine]	128 to 130 °C	235 µM	
N=C(Nc1ccccc1[N+](=O)[O-])Nc1ccccc1[N+](=O)[O-] [Compound 3, 1,3-bis(2-nitrophenyl)guanidine]	136 to 138 °C		IC50 (BACE1 enzyme): 259 µM
N=C(Nc1ccccn1)Nc1ccccn1 [Compound 4, 1,3-di(pyridin-2-yl)guanidine]	140 to 142 °C	9 µM	
N=C(Nc1ccc2ncccc2c1)Nc1ccc2ncccc2c1 [Compound 5, 1,3-di(quinolin-6-yl)guanidine]	133 to 134 °C	0.091 µM	
N=C(Nc1cc(F)c2ccccc2c1)Nc1cc(F)c2ccccc2c1 [Compound 6, 1,3-bis(4-fluoronaphthalen-2-yl)guanidine]	126 to 128 °C	0.102 µM	
N=C(Nc1ccc2ccccc2c1)Nc1ccc2ccccc2c1 [Compound 7, 1,3-di(naphthalen-2-yl)guanidine]	146 to 148 °C	159 µM	
N=C(Nc1cc(C(F)(F)F)cc(C(F)(F)F)c1)Nc1cc(C(F)(F)F)cc(C(F)(F)F)c1 [Compound 8, 1,3-bis(3,5-bis(trifluoromethyl)phenyl)guanidine]	76 to 78 °C	229 µM	
N=C(Nc1cnc(F)c(F)c1)Nc1cnc(F)c(F)c1 [Compound 9, 1,3-bis(5,6-difluoropyridin-3-yl)guanidine]	128 to 130 °C		exploration time [1]: 53.80 ± 2.15 s; escape latency ([2]; day 5, AlCl3-induced mice treated with compound, AlCl3 group 50.60 ± 3.70, control 20.20 ± 2.01, p < 0.05, in s (unit assumed)): 27.72 ± 2.60; number of crossings of the targeted quadrant ([2]; probe test, AD model 6.10 ± 1.0, control 19.80 ± 1.90): 16.70 ± 1.07; time spent in exploration of the targeted quadrant ([2]; probe test, per hundred of total time (Figure 2c), AD-induced 23.6 ± 2.01, control 49.60 ± 2.35): 41.07 ± 2.5
N=C(Nc1ccc(Br)cc1)Nc1ccc(Br)cc1 [Compound 10, 1,3-bis(4-bromophenyl)guanidine]	250 to 252 °C	321 µM	BACE1 inhibition (BACE1 enzyme; FRET assay, at 500 pmol): 35%
N=C(Nc1ccc(Cl)cc1F)Nc1ccc(Cl)cc1F [Compound 11, 1,3-bis(4-chloro-2-fluorophenyl)guanidine]	160 to 162 °C	172 µM	
N=C(Nc1ccc(F)cc1)Nc1ccc(F)cc1 [Compound 12, 1,3-bis(4-fluorophenyl)guanidine]	146 to 148 °C	103 µM	
N=C(Nc1ccc(F)c(F)c1)Nc1ccc(F)c(F)c1 [Compound 13, 1,3-bis(3,4-difluorophenyl)guanidine]		71 µM	
